Measurements as given in patent US20060035317A1, “Effect of treatment with 4,5-dihydroxy-2-cyclopenten-1-one (dhcp) on gene expression and quorum-sensing in bacteria” (priority 2002, published 2006).
Values joined by “and” are separate entries in the source; they are usually repeats but may differ in a detail not shown here. Equal entries are not always repeated. Where two headings read alike, the source gives them in different places.

Assays:
[1] = system: E. coli wild-type strain JM83 (gene expression); experiment: DNA microarray analysis of mRNA levels in DHCP-treated vs control cells; type: cell-based; conditions: DHCP 250 μM, 8 h
Description: E. coli wild-type strain JM83 [F^− araΔ(lac-proAB) rpsL(str^r)] (Yanisch-Perron et al., 1985) was grown in Luria broth (LB). V. harveyi strains BB152 and BB170 were a gift from Dr. Bonnie Bassler (Princeton University). These strains were grown in AB medium as described previously (Surette et al., 1999).
E. coli cells grown overnight in LB medium were diluted into fresh LB medium. After the growth reached a Klett unit of 50, DHCP was added (250 μM) and growth was further monitored. After growth reached a Klett unit of 90-100, it was diluted 10-fold into a medium containing the same concentration of DHCP as described previously (Phadtare et al., 2001). The cells were harvested after a total of 8 h of incubation with DHCP. […] The total RNA was extracted by the hot phenol method described previously (Sarmientos et al., 1983). It was further purified by RNeasy Minikit (Qiagen) and was then treated with DNase I followed by phenol-chloroform treatment and ethanol precipitation. It was quantified by measuring absorbance at 260 nm. The purity of RNA was confirmed by agarose gel electrophoresis.
The mRNAs were labeled with Cy3-dUTP and Cy5-dUTP (Amersham Pharmacia). Random Hexamer pd(N)6 (Amersham Pharmacia) was used as a primer and the IntelliGene E. coli CHIP Version 1 (Takara Shuzo, Co. Ltd., Japan) the DNA microarray was used. This represents the entire ORF of E. coli K-12 W3110.
The cell densities of the control (untreated) and the DHCP-treated cells used were the same; thus, the changes seen in the microarray were not substantially influenced by the difference in cell densities. RNAs isolated from the respective cells were used to generate probes for hybridization of DNA arrays and the data were quantified as described in the Materials and Methods section of this Example. Calculation of the log expression ratios of the corresponding spots allowed pair-wise comparisons of the relative transcript levels for each of the E. coli genes under the two growth conditions. Only those genes whose expression levels differed by log ratio of at least four were considered. In some cases, genes belonging to same operon or category were considered even if the log ratios differed by the factor of only three or little less than three. Log ratios above zero value indicate induction and below zero value indicate repression by DHCP treatment. […] The results of both methods are in agreement with each other.

E. coli JM83 = conditions: DHCP 250 μM, Phadtare et al., 2001, cited from earlier work

In the case of `O=C1C=CC(O)C1O` (stereo not shown) [DHCP, 4,5-dihydroxy-2-cyclopenten-1-one], the “Increase of mRNA levels” value ([1]; Cys regulon genes cysA, cysD, cysH, cysI, cysJ, cysk, cysM, cysN, cysP, cysQ, cysU, cysW) is reported as 3-20 times, the “Ratio (DHCP-treated/control)” value ([1]; gene CysH (Adenylsulphate reductase)) is reported as 6.50 and the “Ratio (DHCP-treated/control)” value ([1]; gene CysI (Sulfite reductase(NADPH) alpha subunit)) is reported as 7.30. For the same molecule, the “Ratio (DHCP-treated/control)” value ([1]; gene CysJ (Sulfite reductase(NADPH) beta subunit)) was 4.70, the “Ratio (DHCP-treated/control)” value ([1]; gene CysK (Cysteine synthase)) was 20 and the “Ratio (DHCP-treated/control)” value ([1]; gene CysM (O-acetylserine (thiol)-lyase B)) was 3.00. The “Ratio (DHCP-treated/control)” value ([1]; gene CysN (Sulfate adenylyltransferase)) was 5.00, the “Ratio (DHCP-treated/control)” value ([1]; gene CysP (Thiosulfate-binding protein CysP precursor)) was 3.55 and the “Ratio (DHCP-treated/control)” value ([1]; gene CysQ (Ammonium transport protein CysQ)) was 3.28. The “Ratio (DHCP-treated/control)” value ([1]; gene CysW (Sulfate/thiosulfate transport protein CysW)) was 15.00, the “Ratio (DHCP-treated/control)” value ([1]; gene EntA (2,3-dihydro-2,3-dihydroxybenzoate)) was 0.44 and the “Ratio (DHCP-treated/control)” value ([1]; gene EntB (Isochorismatase)) was 0.23. For the same molecule, the “Ratio (DHCP-treated/control)” value ([1]; gene EntC (Isochorismate synthase)) was 0.45, the “Ratio (DHCP-treated/control)” value ([1]; gene EntE (Enterochelin synthetase)) was 0.32 and the “Ratio (DHCP-treated/control)” value ([1]; gene Fbp (Fructose-1,6-biphosphatase)) was 4.00. The “Ratio (DHCP-treated/control)” value ([1]; gene FruB (PTS system)) was 0.12, the “Ratio (DHCP-treated/control)” value ([1]; gene FruK (I-phosphofructokinase)) was 0.03 and the “Ratio (DHCP-treated/control)” value ([1]; gene GalM (Aldose 1-epimerase)) was 4.00. The “Ratio (DHCP-treated/control)” value ([1]; gene Gale (UDP-glucose 4-epimerase)) was 4.60, the “Ratio (DHCP-treated/control)” value ([1]; gene MarA (Multiple antibiotic resistance protein MarA)) was 5 and the “Ratio (DHCP-treated/control)” value ([1]; gene MdaB (Modulator of drug activity)) was 10. The “Ratio (DHCP-treated/control)” value ([1]; gene TalA (Patatire transaldolase)) was 7.6, the “Ratio (DHCP-treated/control)” value ([1]; gene TehB (Tellurite resistance protein TehB)) was 5 and the “Ratio (DHCP-treated/control)” value ([1]; gene YidS (unknown function or class)) was 4. The “Ratio (DHCP-treated/control)” value ([1]; gene ZipA (Cell division protein)) was 4.50, the “Decrease of mRNA level” value ([1]; gene ackA) was 3.6 times and the “Ratio (DHCP-treated/control)” value ([1]; gene ansP (L-asparagine permease)) was 0.29. The “Ratio (DHCP-treated/control)” value ([1]; gene atoE (Short-chain fatty acids)) was 0.17, the “Ratio (DHCP-treated/control)” value ([1]; gene atzN (Zinc-transporting ATPase)) was 11 and 11.30 and the “Ratio (DHCP-treated/control)” value ([1]; gene cheA (Chemotaxis protein CheA)) was 0.25. The “Ratio (DHCP-treated/control)” value ([1]; gene cpxP (Periplasmic protein precursor)) was 4.95, the “Ratio (DHCP-treated/control)” value ([1]; gene creD (Inner-membrane protein CreD)) was 47 and the “Ratio (DHCP-treated/control)” value ([1]; gene cysU (Sulfate transport system permease)) was 4.99. For the same molecule, the “Ratio (DHCP-treated/control)” value ([1]; gene czcD (Cation efflux protein CzcD)) was 3.60, the “Ratio (DHCP-treated/control)” value ([1]; gene dps (DNA-binding protein Dps)) was 13 and the “Ratio (DHCP-treated/control)” value ([1]; gene fadL (Long-chain fatty acid transport protein)) was 0.10. For the same molecule, the “Ratio (DHCP-treated/control)” value ([1]; gene fecA (Iron(III) dicitrate transport protein FecA)) was 0.16, the “Ratio (DHCP-treated/control)” value ([1]; gene fecB (Iron(III) dicitrate-binding protein)) was 0.15 and the “Ratio (DHCP-treated/control)” value ([1]; gene fecC (FecC protein)) was 0.21. For the same molecule, the “Ratio (DHCP-treated/control)” value ([1]; gene fecD (Iron(III) dicitrate transport system protein)) was 0.15, the “Ratio (DHCP-treated/control)” value ([1]; gene fecE (Iron(III) dicitrate transport protein)) was 0.11 and the “Ratio (DHCP-treated/control)” value ([1]; gene fepA (Ferrienterochelin receptor precursor)) was 0.25. For the same molecule, the “Ratio (DHCP-treated/control)” value ([1]; gene fepC (Ferric enterobactin transport protein FepC)) was 0.40, the “Inhibition of mRNA level” value ([1]; gene fruB) was 8 times and the “Inhibition of mRNA level” value ([1]; gene fruK) was 33 times. For the same molecule, the “Ratio (DHCP-treated/control)” value ([1]; gene glf (UDP-galactopyranose mutase)) was 0.20, the “Ratio (DHCP-treated/control)” value ([1]; gene hdeB (10k-1 protein precursor)) was 6.00 and the “Ratio (DHCP-treated/control)” value ([1]; gene katG (Catalase HPI)) was 9.00. For the same molecule, the “Ratio (DHCP-treated/control)” value ([1]; gene lysP (Lysin-specific permease)) was 0.16, the “Ratio (DHCP-treated/control)” value ([1]; gene motA (Chemotaxis protein MotA)) was 0.18 and the “Ratio (DHCP-treated/control)” value ([1]; gene motB (Chemotaxis protein MotB)) was 0.40. For the same molecule, the “Ratio (DHCP-treated/control)” value ([1]; gene msyB (Membrane protein)) was 4.25, the “Ratio (DHCP-treated/control)” value ([1]; gene nmpC (Outer membrane porin protein precursor)) was 0.01 and the “Ratio (DHCP-treated/control)” value ([1]; gene ompA (Outer membrane protein a precursor)) was 0.23. The “Ratio (DHCP-treated/control)” value ([1]; gene ompC (Outer membrane protein c precursor)) was 0.20, the “Ratio (DHCP-treated/control)” value ([1]; gene ompF (Outer membrane protein f precursor)) was 0.06 and the “Ratio (DHCP-treated/control)” value ([1]; gene ompT (ProteinaseVII)) was 0.11. For the same molecule, the “Ratio (DHCP-treated/control)” value ([1]; gene osmY (Hyperosmotically induced protein)) was 12.00, the “Ratio (DHCP-treated/control)” value ([1]; gene otsA (Tehalose-6-phosphate synthase)) was 11.00 and the “Ratio (DHCP-treated/control)” value ([1]; gene pheP (phenylalanine transport protein pheP)) was 0.13. The “Ratio (DHCP-treated/control)” value ([1]; gene plsX (PlsX protein)) was 0.28, the “Ratio (DHCP-treated/control)” value ([1]; gene potA (Spermidine/putrescine transport protein A)) was 0.13 and the “Ratio (DHCP-treated/control)” value ([1]; gene potB (Spermidine/putrescine transport system)) was 0.13. For the same molecule, the “Ratio (DHCP-treated/control)” value ([1]; gene potC (Spermidine/putrescine transport system)) was 0.20, the “Ratio (DHCP-treated/control)” value ([1]; gene potD (Spermidine/putrescine transport protein D)) was 0.19 and the “Ratio (DHCP-treated/control)” value ([1]; gene poxB (Pyruvate dehydrogenase)) was 15.00. The “Ratio (DHCP-treated/control)” value ([1]; gene rfc (Probably O-antigen polymerase)) was 0.23, the “Ratio (DHCP-treated/control)” value ([1]; gene rplA (Ribosomal protein L1)) was 0.23 and the “Ratio (DHCP-treated/control)” value ([1]; gene rplB (Ribosomal protein L2)) was 0.25. The “Ratio (DHCP-treated/control)” value ([1]; gene rplC (Ribosomal protein L3)) was 0.28, the “Ratio (DHCP-treated/control)” value ([1]; gene rplD (Ribosomal protein L4)) was 0.27 and the “Ratio (DHCP-treated/control)” value ([1]; gene rplE (Ribosomal protein L5)) was 0.34. The “Ratio (DHCP-treated/control)” value ([1]; gene rplF (Ribosomal protein L6)) was 0.30, the “Ratio (DHCP-treated/control)” value ([1]; gene rplI (Ribosomal protein L9)) was 0.25 and the “Ratio (DHCP-treated/control)” value ([1]; gene rplJ (Ribosomal protein L10)) was 0.28. For the same molecule, the “Ratio (DHCP-treated/control)” value ([1]; gene rplK (Ribosomal protein L11)) was 0.39, the “Ratio (DHCP-treated/control)” value ([1]; gene rplM (Ribosomal protein L13)) was 0.49 and the “Ratio (DHCP-treated/control)” value ([1]; gene rplN (Ribosomal protein L14)) was 0.44. The “Ratio (DHCP-treated/control)” value ([1]; gene rplO (Ribosomal protein L15)) was 0.36, the “Ratio (DHCP-treated/control)” value ([1]; gene rplP (Ribosomal protein L16)) was 0.36 and the “Ratio (DHCP-treated/control)” value ([1]; gene rplQ (Ribosomal protein L17)) was 0.47. The “Ratio (DHCP-treated/control)” value ([1]; gene rplR (Ribosomal protein L18)) was 0.38, the “Ratio (DHCP-treated/control)” value ([1]; gene rplS (Ribosomal protein L19)) was 0.35 and the “Ratio (DHCP-treated/control)” value ([1]; gene rplV (Ribosomal protein L22)) was 0.28. For the same molecule, the “Ratio (DHCP-treated/control)” value ([1]; gene rplW (Ribosomal protein L23)) was 0.27, the “Ratio (DHCP-treated/control)” value ([1]; gene rplX (Ribosomal protein L24)) was 0.31 and the “Ratio (DHCP-treated/control)” value ([1]; gene rplY (Ribosomal protein L25)) was 0.28. The “Ratio (DHCP-treated/control)” value ([1]; gene rpmB (Ribosomal protein L28)) was 0.45, the “Ratio (DHCP-treated/control)” value ([1]; gene rpmE (Ribosomal protein L31)) was 0.39 and the “Ratio (DHCP-treated/control)” value ([1]; gene rpoS (RNP polymerase sigma factor RpoS)) was 4. The “Ratio (DHCP-treated/control)” value ([1]; gene sdaC (Probable serine transport protein)) was 0.25, the “Ratio (DHCP-treated/control)” value ([1]; gene secF (Secretion protein SecF)) was 0.26 and the “Ratio (DHCP-treated/control)” value ([1]; gene secG (P12 cytoplasmic membrane protein)) was 0.30. For the same molecule, the “Ratio (DHCP-treated/control)” value ([1]; gene secY (SecY protein)) was 0.40, the “Ratio (DHCP-treated/control)” value ([1]; gene tsr (Methyl-accepting chemotaxis protein1(mcp-1))) was 0.22 and the “Ratio (DHCP-treated/control)” value ([1]; gene tsx (Nucleoside-specific channel-forming protein)) was 0.22. For the same molecule, the “Ratio (DHCP-treated/control)” value ([1]; gene wrbA (Trp repressor binding protein)) was 14.00, the “Ratio (DHCP-treated/control)” value ([1]; gene yieI (unknown function or class)) was 4 and the “Ratio (DHCP-treated/control)” value ([1]; gene znu (High-affinity zinc uptake system protein)) was 0.13. The “Induction of CreBC-regulated genes” value ([1]; genes ackA, pta, radc, malE and trgB) was “not induced”, the Induction of genes ([1]; genes astD, tnaB and gabT) was “not induced” and the “Effect on mRNA levels” value ([1]; genes cysG and cysS (not in Cys regulon)) was “not affected”. The “Decrease of mRNA levels” value ([1]; genes encoding outer membrane proteins (Omp)) was 5-15 times, the “Decrease of mRNA levels” value ([1]; genes motA, motB and cheA (motor action)) was 4-6 times and the “Change of mRNA levels” value ([1]; genes parc and parE (topoisomerase IV subunits)) was “did not change”. For the same molecule, the “Change of mRNA levels” value ([1]; genes rfa, wzb or hha) was “did not change significantly”, the “Reduction of mRNA levels” value ([1]; most of the genes encoding ribosomal L proteins) was 2-3 times and the “Growth of E. coli JM83” value (E. coli JM83; after 3 h of incubation) was “severely impaired”. For the same molecule, the “Growth of E. coli JM83” value (E. coli JM83; after 5 h) was “stopped growing”.
